Source: PubChem BioAssay (NCI)
“And” between values parts separate entries of the source, which are not always exact repeats. Equal values may be shown once.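 In this assay, cells in 96-well plates receive the compound at five concentrations for 48 hours. Endpoints are linearly interpolated between the surrounding concentrations. TGI: total growth inhibition.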

Assays:
Test in all cases: DTP human tumour cell line panel, 48 h
[1] = test system: SNB-19 CNS
[2] = test system: HOP-92 NSCLC
[3] = test system: SK-MEL-2 melanoma
[4] = test system: M14 melanoma
[5] = test system: SR leukemia
[6] = test system: K-562 leukemia
[7] = test system: SW-620 colon
[8] = test system: A549 NSCLC
[9] = test system: NCI/ADR-RES ovarian
[10] = test system: HT29 colon
[11] = test system: MOLT-4 leukemia

Structure (SMILES)	TGI [1]	TGI [2]	TGI [3]	TGI [4]	TGI [5]	TGI [6]	TGI [7]	TGI [8]	TGI [9]	TGI [10]	TGI [11]
CC(=O)OC(C)C1C2=C(C(=O)CC1(C)O)C(=O)c1c(ccc(-c3ccc4c(c3O)C(=O)C3=C(C4=O)C(C(C)OC(C)=O)C(C)(O)CC3=O)c1O)C2=O (stereo not drawn)	24 µM	3.08 µM	2.74 µM	4.3 µM	26.5 µM	> 100 µM	2.1 µM	18.8 µM	45.1 µM	3.98 µM	> 100 µM
c1ccc(Cc2nc(Cc3n[nH]c(Cc4ccccc4)n3)n[nH]2)cc1	> 100 µM	> 100 µM	> 100 µM	> 100 µM	> 100 µM	> 100 µM	> 100 µM	> 100 µM	> 100 µM	> 100 µM	> 100 µM
O/C(=C\c1nc2ccccc2nc1/C=C(\O)c1ccc(Cl)cc1)c1ccccc1	> 100 µM	–	> 100 µM	> 100 µM	> 100 µM	> 100 µM	> 100 µM	> 100 µM	> 100 µM	–	40.9 µM
CS/C1=C(\c2ccc(C)cc2)N(c2ccccc2)C(=O)C(=O)N(c2ccccc2)/C(c2ccc(C)cc2)=C(/SC)SS1	> 100 µM	> 100 µM	> 100 µM	> 100 µM	> 100 µM	> 100 µM	> 100 µM	–	> 100 µM	> 100 µM	> 100 µM
O=C(CC(C(=O)c1ccco1)c1ccsc1)c1ccco1 (stereo not drawn)	–	> 100 µM	–	> 100 µM	> 100 µM	> 100 µM	> 100 µM	> 100 µM	> 100 µM	> 100 µM	> 100 µM
CSc1nc(Cl)c(Br)c(Sc2nc(N)nc3nc[nH]c23)n1	30.2 µM	19.2 µM	16.9 µM	15.3 µM	14.1 µM	13.1 µM	25.3 µM	48.7 µM	–	36.8 µM	18.9 µM
O=C(O)CN1CCN2CCOCCOCCN(CC1)CCN(CC(=O)O)CC2	> 100 µM	> 100 µM	> 100 µM	> 100 µM	> 100 µM	> 100 µM	> 100 µM	> 100 µM	> 100 µM	> 100 µM	–
Cc1ccc2c(=O)c3cccc(CC(=O)O)c3[nH]c2c1C	> 100 µM	> 100 µM	–	> 100 µM	> 100 µM	> 100 µM	> 100 µM	> 100 µM	> 100 µM	> 100 µM	> 100 µM
NNC(=O)c1ccccc1NC(=O)/C(=C/c1ccccc1O)NC(=O)c1ccccc1	79.7 µM	> 100 µM	–	> 100 µM	> 100 µM	> 100 µM	> 100 µM	> 100 µM	50.8 µM	> 100 µM	> 100 µM
CC(C)(C)c1cc(C2NCCO2)cc(C(C)(C)C)c1O (stereo not drawn)	–	> 100 µM	> 100 µM	–	> 100 µM	> 100 µM	> 100 µM	–	> 100 µM	> 100 µM	> 100 µM
CC(=O)OCC(OC(C)=O)C(OC(C)=O)C(OC(C)=O)C(C=NN(C(C)=O)S(=O)(=O)c1ccc(/C=C2\NC(=O)N(C)C2=O)cc1)OC(C)=O (stereo not drawn)	> 100 µM	–	58 µM and > 100 µM	> 100 µM	44.1 µM and 61 µM	> 100 µM and 57.1 µM	83.7 µM and 97.7 µM	> 100 µM	> 100 µM	> 100 µM	45.6 µM
